Laboratory results: the CheMixHub viscosity set

Experiment: xn = mol fraction of the nth substance listed

NCC(=O)[O-].[Na+] + O
viscosity [mPa·s], 101 kPa
Settings	x1 = 0.01	x1 = 0.0194	x1 = 0.0289	x1 = 0.0371	x1 = 0.048
298.15 K	1.124	1.41	1.747	2.15	2.82
308.15 K	0.904	1.106	1.369	1.662	2.13
323.15 K	0.677	0.818	0.993	1.183	1.479

O=C1CCCO1 + O
viscosity [mPa·s]
Settings	298.15 K	303.15 K	308.15 K	313.15 K	318.15 K	323.15 K
101 kPa, x1 = 0.0503	1.233	1.096	0.9821	0.8569	0.8041	–
101 kPa, x1 = 0.0995	1.481	1.312	1.171	1.031	0.9551	–
101 kPa, x1 = 0.1997	1.783	1.577	1.407	1.248	1.143	–
101 kPa, x1 = 0.2994	1.896	1.686	1.509	1.346	1.232	–
101 kPa, x1 = 0.3997	1.915	1.711	1.538	1.379	1.266	–
101 kPa, x1 = 0.499	1.875	1.688	1.528	1.379	1.273	–
101 kPa, x1 = 0.5994	–	1.637	1.493	1.356	1.26	–
101 kPa, x1 = 0.701	1.754	1.603	1.471	1.343	1.255	–
101 kPa, x1 = 0.7995	1.716	1.578	1.457	1.337	1.256	–
101 kPa, x1 = 0.8996	1.697	1.569	1.457	1.343	1.267	–
101 kPa, x2 = 0.3	1.645	–	–	–	–	–
101 kPa, x2 = 0.9	1.385	–	–	–	–	–
101.33 kPa, x2 = 0.0898	–	1.56	–	1.339	–	1.163
101.33 kPa, x2 = 0.2337	–	1.595	–	1.349	–	1.159
101.33 kPa, x2 = 0.6207	–	1.674	–	1.349	–	1.112
101.33 kPa, x2 = 0.9031	–	1.257	–	1.005	–	0.8246

CC(C)N + O=C1CCCCC1
298.15 K, 101 kPa
Settings	viscosity [mPa·s]
x2 = 0.0627	0.41
x2 = 0.1309	0.604
x2 = 0.2051	0.844
x2 = 0.2865	1.135
x2 = 0.3759	1.498
x2 = 0.4746	1.904
x2 = 0.5842	2.083
x2 = 0.7067	2.162
x2 = 0.8442	2.051

OCC(F)(F)F + O=C1CCCN1
viscosity [mPa·s], 101 kPa
Settings	x1 = 0.3	x1 = 0.4	x1 = 0.5	x1 = 0.6	x1 = 0.7	x1 = 0.8	x1 = 0.9
293.15 K	9.082	6.392	4.918	3.907	3.208	2.768	2.477
303.15 K	6.16	4.724	3.801	3.071	2.519	2.146	1.882
313.15 K	4.448	3.625	3.008	2.458	2.015	1.705	1.478
323.15 K	3.389	2.875	2.431	1.999	1.64	1.384	1.194

C[N+](C)(C)CC(=O)[O-] + O=C1O[C@H]([C@@H](O)CO)C(O)=C1O
Settings	viscosity [mPa·s]
298.15 K, 101.33 kPa, x2 = 0.5	721.2

C[N+](C)(C)CC(=O)[O-] + O=C(O)CC(O)(CC(=O)O)C(=O)O
101.3 kPa, x1 = 0.333
Settings	viscosity [mPa·s]
298 K	36920
323 K	2775

Brc1ccccc1 + O=[N+]([O-])c1ccccc1
viscosity [mPa·s], 101 kPa
Settings	x2 = 0.117	x2 = 0.225	x2 = 0.345	x2 = 0.464	x2 = 0.554	x2 = 0.676	x2 = 0.79	x2 = 0.887
298.15 K	1.106	1.164	1.227	1.296	1.352	1.465	1.556	1.673
303.15 K	1.036	1.075	1.13	1.209	1.246	1.355	1.459	1.551
308.15 K	0.973	1.015	1.06	1.117	1.173	1.251	1.345	1.423

C=CC[P+](c1ccccc1)(c1ccccc1)c1ccccc1.[Br-] + OCC(O)CO
101 kPa, x1 = 0.0667
Settings	viscosity [mPa·s]
296.84 K	1037
302.15 K	679.9
306.82 K	475.9
312.25 K	314.4

C1COCCO1 + OCCO
viscosity [mPa·s], 100 kPa
Settings	x1 = 0.1014	x1 = 0.2054	x1 = 0.2968	x1 = 0.3998	x1 = 0.4966	x1 = 0.5992	x1 = 0.7005	x1 = 0.7985	x1 = 0.8969
293.15 K	15.53	11.26	8.022	5.534	3.77	2.758	2.223	1.737	1.405
298.15 K	12.4	9.243	6.602	4.535	3.152	2.436	1.983	1.569	1.329
303.15 K	10.21	7.423	5.425	3.682	–	2.169	1.78	1.401	–
